Target: PD-1/PD-L1 (Homo sapiens (Human), UniProt Q9NZQ7)
Experiment: Homogeneous Time-Resolved Fluorescence (HTRF) binding assay
Conditions: CisBio kit #64CUS000C-1, read-out: IC50 of compounds binding to PD-1/PD-L1
Method: Homogeneous Time-Resolved Fluorescence (HTRF) binding assay was used to determine the binding activity of the compound of the present invention to PD-1/PD-L1.
The purchased kit (CisBio, #64CUS000C-1) contained reagents required for assays such as PD-1, PD-L1, anti-tag1-Eu, Anti-tag2-XL665, Dilute Buffer, and Detection Buffer.
1. The compound was formulated to 10 concentrations with a 3-fold gradient with 100% DMSO.
2. The solution of the compound in DMSO was added to Dilute Buffer, mixed thoroughly, then transferred to a 96-well plate.
3. PD-L1 was diluted with Dilute Buffer, then added to the above 96-well plate.
4. PD-1 was diluted with Dilute Buffer and added to the above 96-well plate, which was then incubated at room temperature for 30 minutes.
5. A portion of anti-tag1-Eu and a portion of anti-tag2-XL665 were added to Detection Buffer, mixed thoroughly and transferred to the above 96-well plate.
6. The mixture in the above 96-well plate was incubated at room temperature for 1 to 24 hours.
7. HTRF values were read with Envision.

Sequence of PD-1/PD-L1 (Q9NZQ7 19-238): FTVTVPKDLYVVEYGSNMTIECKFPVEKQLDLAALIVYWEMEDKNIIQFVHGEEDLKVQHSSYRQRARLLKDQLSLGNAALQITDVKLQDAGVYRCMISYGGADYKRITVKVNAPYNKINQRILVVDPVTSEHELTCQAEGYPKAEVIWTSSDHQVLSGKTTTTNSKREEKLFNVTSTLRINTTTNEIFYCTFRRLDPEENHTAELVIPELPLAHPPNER

| IC50 [µM] | Compound |
| --- | --- |
| 0.059 | COc1cc(/C=C/c2cccc(-c3ccccc3)c2C)cc(OC)c1CNC(C)(CO)C(=O)O (stereo not drawn) [Compound 44, (E)-2-(2,6-Dimethoxy-4-(2-(2-methylbiphenyl-3-yl)vinyl)benzylamino)-3-hydroxy-2-methylpropanoic Acid] |
| 0.048 | COc1cc(/C=C/c2cccc(-c3ccccc3)c2C)cc(OC)c1CN[C@](C)(CO)C(=O)O [Compound 46, (R,E)-2-(2,6-Dimethoxy-4-(2-(2-methylbiphenyl-3-yl)vinyl)benzylamino)-3-hydroxy-2-methylpropanoic Acid] |
| 0.92 | COc1cc(/C=C/c2cccc(-c3ccccc3)c2C)cc(OC)c1CN1CCCCC1(CO)C(=O)O (stereo not drawn) [Compound 47] |
| > 10 | COC(=O)c1ccc(-c2cccc(/C=C/c3cc(OC)c(CNC(C)(CO)C(=O)O)c(OC)c3)c2C)cc1 (stereo not drawn) [Compound 49, (E)-2-(2,6-Dimethoxy-4-(2-(4′-(methoxycarbonyl)-2-methylbiphenyl-3-yl)vinyl)benzylamino)-3-hydroxy-2-methylpropanoic Acid] |
| 7.98 | COc1ccc(-c2cccc(/C=C/c3cc(OC)c(CNC(C)(CO)C(=O)O)c(OC)c3)c2C)cc1 (stereo not drawn) [Compound 50, (E)-2-(2,6-Dimethoxy-4-(2-(4′-methoxy-2-methylbiphenyl-3-yl)vinyl)benzylamino)-3-hydroxy-2-methylpropionic Acid] |
| > 10 | COc1cc(/C=C/c2cccc(-c3ccccc3)c2C)cc(OC)c1CNc1cccc(O)c1C(=O)O [Compound 53, (E)-2-(2,6-Dimethoxy-4-(2-(2-methylbiphenyl-3-yl)vinyl)benzylamino)-6-hydroxybenzoic Acid] |
| > 10 | COc1ccc(-c2cccc(/C=C/c3cc(OC)c(CNc4cccc(O)c4C(=O)O)c(OC)c3)c2C)cc1 [Compound 54, (E)-2-(2,6-Dimethoxy-4-(2-(4′-methoxy-2-methylbiphenyl-3-yl)vinyl)benzylamino)-6-hydroxybenzoic Acid] |
| 4.5 | COc1cc(/C=C/c2cccc(-c3ccc(C(N)=O)cc3)c2C)cc(OC)c1CNc1cccc(O)c1C(=O)O [Compound 55, (E)-2-(2,6-Dimethoxy-4-(2-(4′-carbamoyl-2-methylbiphenyl-3-yl)vinyl)benzylamino)-6-hydroxy-benzoic Acid] |
| > 10 | COc1cc(/C=C/c2cccc(-c3ccccc3)c2C)cc(OC)c1CNc1ccc(O)c(C(=O)O)c1 [Compound 59, (E)-5-(2,6-Dimethoxy-4-(2-(2-methylbiphenyl-3-yl)vinyl)benzylamino)-2-hydroxybenzoic Acid] |
| > 10 | COc1cc(N2C=CCN2c2cccc(-c3ccccc3)c2C)cc(OC)c1CNC(CO)C(=O)O (stereo not drawn) [Compound 60, 2-(2,6-Dimethoxy-4-(2-(2-methylbiphenyl-3-yl)-1H-pyrazol-1-yl)benzylamino)-3-hydroxypropanoic Acid] |
| 0.12 | COc1cc(/C=C/c2cccc(-c3ccc4c(c3)OCCO4)c2C)ccc1CN[C@@H](CO)C(=O)O [Compound 62, (S,E)-2-(4-(3-(2,3-Dihydrobenzo[b][1,4]dioxin-6-yl)-2-methylstyryl)-2-methoxybenzylamino)-3-hydroxypropanoic Acid] |
| 4.2 | COc1cc(/C=C/c2cncc(-c3ccc4c(c3)OCCO4)c2C)cc(OC)c1CN[C@@H](CO)C(=O)O [Compound 64, (S,E)-2-(4-(2-(5-(2,3-Dihydrobenzo[b][1,4]dioxin-6-yl)-4-methylpyridin-3-yl)vinyl)-2,6-dimethoxybenzylamino)-3-hydroxypropanoic Acid] |
| 2 | COc1cc(/C=C/c2cncc(-c3ccccc3)c2C)cc(OC)c1CNC(C)(CO)C(=O)O (stereo not drawn) [Compound 65, (E)-2-(2,6-Dimethoxy-4-(2-(4-methyl-5-phenylpyridin-3-yl)vinyl)benzylamino)-3-hydroxy-2-methylpropionic Acid] |

More lines, now with the values behind:

| Compound | IC50 [µM] |
| --- | --- |
| COc1cc(/C=C/c2cccc(-c3ccccc3)c2C)cc(OC)c1CN[C@@](C)(CO)C(=O)O [Compound 45, (S,E)-2-(2,6-Dimethoxy-4-(2-(2-methylbiphenyl-3-yl)vinyl)benzylamino)-3-hydroxy-2-methylpropanoic Acid] | 0.049 |
| COc1ccc(-c2cccc(/C=C/c3cc(OC)c(CN[C@@H](CO)C(=O)O)c(OC)c3)c2C)cc1 [Compound 48, (S,E)-2-(2,6-Dimethoxy-4-(2-(4′-methoxy-2-methylbiphenyl-3-yl)vinyl)benzylamino)-3-hydroxypropionic Acid] | > 10 |
| COC(=O)c1cccc(-c2cccc(/C=C/c3cc(OC)c(CNC(C)(CO)C(=O)O)c(OC)c3)c2C)c1 (stereo not drawn) [Compound 51, (E)-2-(2,6-Dimethoxy-4-(2-(3′-methoxycarbonyl-2-methylbiphenyl-3-yl)vinyl)benzylamino)-3-hydroxy-2-methylpropionic Acid] | 0.815 |
| COc1cc(/C=C/c2cccc(-c3cccc(CO)c3)c2C)cc(OC)c1CNC(C)(CO)C(=O)O (stereo not drawn) [Compound 52, (E)-2-(2,6-Dimethoxy-4-(2-(3′-hydroxymethyl-2-methylbiphenyl-3-yl)vinyl)benzylamino)-3-hydroxy-2-methylpropionic Acid] | > 10 |
| COc1cc(/C=C/c2cccc(-c3ccc4c(c3)OCCO4)c2C)cc(OC)c1CNC(CO)C(=O)O (stereo not drawn) [Compound 56, (E)-2-(4-(3-(2,3-Dihydrobenzo[b][1,4]dioxin-6-yl)-2-methylstyryl)-2,6-dimethoxybenzylamino)-3-hydroxypropanoic Acid] | 0.1 |
| COc1cc(/C=C/c2cccc(-c3ccc4c(c3)OCCO4)c2C)cc(OC)c1CNC(C)(CO)C(=O)O (stereo not drawn) [Compound 57, (E)-2-(4-(3-(2,3-Dihydrobenzo[b][1,4]dioxin-6-yl)-2-methylstyryl)-2,6-dimethoxybenzylamino)-3-hydroxy-2-methylpropanoic Acid] | 0.07 |
| COc1cc(/C=C/c2cccc(-c3ccccc3)c2C)cc(OC)c1CNc1ccc(C(=O)O)c(O)c1 [Compound 58, (E)-4-(2,6-Dimethoxy-4-(2-(2-methylbiphenyl-3-yl)vinyl)benzylamino)-2-hydroxybenzoic Acid] | > 10 |
| COc1cc(/C=C/c2cccc(-c3cnn(C)c3)c2C)cc(OC)c1CN[C@@H](CO)C(=O)O [Compound 61] | > 10 |
| COc1cc(/C=C/c2cncc(-c3ccccc3)c2C)cc(OC)c1CN[C@@H](CO)C(=O)O [Compound 63, (S,E)-2-(2,6-dimethoxy-4-(2-(4-methyl-5-phenylpyridin-3-yl)vinyl)benzylamino)-3-hydroxypropanoic Acid] | 3.9 |
| COc1cc(/C=C/c2cncc(-c3ccc4c(c3)OCCO4)c2C)cc(OC)c1CNC(C)(CO)C(=O)O (stereo not drawn) [Compound 66, (E)-2-(4-(2-(5-(2,3-Dihydrobenzo[b][1,4]dioxin-6-yl)-4-methylpyridin-3-yl)vinyl)-2,6-dimethoxybenzylamino)-3-hydroxy-2-methylpropanoic Acid] | 2.9 |
| Cc1c(/C=C/c2cc(CN3CCC[C@H]3CO)ccc2C(F)(F)F)cccc1-c1ccc2c(c1)OCCO2 [Compound 67, (S,E)-(1-(3-(3-(2,3-Dihydrobenzo[b][1,4]dioxin-6-yl)-2-methylstyryl)-4-(trifluoromethyl)benzyl)pyrrolidin-2-yl)methanol] | 2.4 |
| Cc1cc(CNC(CO)C(=O)O)cnc1/C=C/c1cccc(-c2ccc3c(c2)OCCO3)c1C (stereo not drawn) [Compound 69, (E)-2-((6-(3-(2,3-Dihydrobenzo[b][1,4]dioxin-6-yl)-2-methylstyryl)-5-methylpyridin-3-yl)methylamino)-3-hydroxypropanoic Acid] | 0.036 |
| (R,E)-2-(3-Chloro-4-(2-(2-methylbiphenyl-3-yl)vinyl)benzylamino)-3-hydroxypropionamide [Compound 34] | 0.34 |
| (S,E)-2-(3-Chloro-4-(2-(2-methylbiphenyl-3-yl)vinyl)benzylamino)-3-hydroxypropanamide [Compound 33] | 0.48 |

From patent publication US11078192B2, “Aromatic acetylene or aromatic ethylene compound, intermediate, preparation method, pharmaceutical composition and use thereof” (GUANGZHOU MAXINOVEL PHARMACEUTICALS CO., LTD., priority 2016, dated 2021)
